Reference: patent publication US11548913B2, “Therapeutic compositions including peptides and uses thereof” (Stealth BioTherapeutics Inc., priority 2015, dated 2023)
“Also recorded” adds a separate entry of the source.

Tests used:
[1] = test system: Excised Sprague-Dawley rat hearts; test: Modified Langendorff rat heart model, ischemia/reperfusion with peptide in the reperfusion buffer (Example 1); conditions: 1 μM peptide in Krebs buffer during 2 hours reperfusion after 20 min global no-flow ischemia; compared to controls
Description: (§1) The Langendorff rodent heart model is widely employed in studies of myocardial function and responses to injury (e.g., ischemia). For whole-heart studies, male Sprague-Dawley rats (7-9 weeks old) were injected with pentobarbital (35 mg/kg, ip injection) and hearts were excised with midline thoracotomy. The aortas were secured around a cannula of a modified Langendorff apparatus and retrogradely perfused (perfusion pressure of 75 mm Hg) with a modified Krebs-Henseleit buffer containing (in mM): 118 NaCl, 24 NaHCO3, 4.75 KCl, 1.2 KH2PO4, 1.2 MgSO4, 2.0 CaCl2, and 10 glucose (gassed with 95/5% O2/CO2). Hearts were bathed in a buffer-filled perfusion chamber maintained at 37° C. for the duration of the experiments. Following the initiation of perfusion, hearts were instrumented for the simultaneous observation of mechanical and electrical function. A buffer-filled latex balloon (size 5, Harvard Apparatus, Holliston, Mass., USA), calibrated at the beginning of each day using a digital manometer, was inserted into the left ventricle (via the mitral valve) for the measurement of left ventricular developed pressure (LVDP), with balloon volume adjusted to establish a diastolic pressure of 5-8 mm Hg. Three electrodes were placed into the buffer filled perfusion chamber for the measurement of the volume-conducted electrocardiogram (ECG). Coronary flow rates were monitored constantly with a flow probe (Transconic Systems, Ithaca, N.Y., USA) connected in series with the perfusion line, and normalized to heart wet weight (in grams) at the end of each experiment. All physiological parameters were continuously monitored and stored on a personal computer using commercially available software (Chart, AD Instruments, Colorado Springs, Colo., USA). Heart rate was calculated using the LVDP trace, and maximal rates of contraction(+dP/dt) and relaxation (−dP/dt) were calculated using the derivative of the LVDP trace.
Following a 10 minute baseline period, ischemia/reperfusion was initiated. Hearts were exposed to global no-flow ischemia by stopping perfusion for 20 min. At the end of the index ischemia, static buffer from the perfusion lines was washed out (via an accessory port proximal to the aortic cannula), and reperfusion ensued for 2 hours either with Krebs buffer alone (control) or Krebs buffer containing an experimental peptide at a concentration of 1 μM. Peptides tested included D-Arg-D-Dmt-D-Lys-L-Phe-NH2 (SBT-46), D-Arg-L-DMT-L-Ala-L-Phe-NH2 (SBT-68), (Ac)-D-Arg-L-DMT-L-Lys-L-Phe-NH2 (SBT-85), D-Arg-L-Dmt-L-His-L-Phe-NH2(SBT-100), D-Arg-L-DMT-L-Orn-L-Phe-NH2 (SBT-102), D-Orn-L-DMT-L-Lys-L-Phe-NH2(SBT-131), D-(Amidine)Arg(propylamine)-L-DMT-L-Lys-L-Phe-NH2 (SBT-140), and D-Arg(butylamidine analog)-L-DMT-L-Lys-L-Phe-NH2(SBT-149). At the end of reperfusion, the left ventricle was dissected, sliced into 5 mm-thick slices, incubated in 1% triphenyltetrazolium chloride (TTC) for 10 min (37° C.) and digitally photographed for subsequent infarct size analysis. Infarct size was expressed as a percentage of the left ventricle (% area at risk (AAR))(calculated using ImageJ software, NIH, Bethesda, Md., USA).

[2] = test system: excised rat hearts; test: Modified Langendorff rat heart model, peptide pre-treatment before ischemia/reperfusion (Example 2); conditions: hearts bathed 2 hours in 1 μM peptide before 20 min ischemia and 2 hours reperfusion; vs SBT-46, SBT-102 and controls; anticipated
Description: as §1, with “are” for “were”, “USA), which is” for “USA),”, “is” for “was”
Prior to the initiation of ischemia/reperfusion, the excised rat hearts are bathed in buffer containing an experimental peptide at a concentration of 1 μM or buffer alone (control) for two hours. The experimental peptide is selected from D-Arg-D-Dmt-D-Lys-L-Phe-NH2 (SBT-46), D-Arg-L-DMT-L-Ala-L-Phe-NH2 (SBT-68), (Ac)-D-Arg-L-DMT-L-Lys-L-Phe-NH2 (SBT-85), D-Arg-L-Dmt-L-His-L-Phe-NH2(SBT-100), D-Arg-L-DMT-L-Orn-L-Phe-NH2 (SBT-102), D-Orn-L-DMT-L-Lys-L-Phe-NH2(SBT-131), D-(Amidine)Arg(propylamine)-L-DMT-L-Lys-L-Phe-NH2(SBT-140), and D-Arg(butylamidine analog)-L-DMT-L-Lys-L-Phe-NH2 (SBT-149). Following a 10 minute baseline period, ischemia/reperfusion is initiated. Hearts are exposed to global no-flow ischemia by stopping perfusion for 20 min. At the end of the index ischemia, static buffer from the perfusion lines is washed out (via an accessory port proximal to the aortic cannula), and reperfusion ensues for 2 hours with Krebs buffer. At the end of reperfusion, the left ventricle is dissected, sliced into 5 mm-thick slices, incubated in 1% triphenyltetrazolium chloride (TTC) for 10 min (37° C.) and digitally photographed for subsequent infarct size analysis. Infarct size is expressed as a percentage of the left ventricle (% area at risk (AAR))(calculated using ImageJ software, NIH, Bethesda, Md., USA).

In the case of Cc1cc(O)cc(C)c1C[C@H](NC(=O)[C@H](N)CCCCC(=N)N)C(=O)N[C@@H](CCCCN)C(=O)N[C@@H](Cc1ccccc1)C(N)=O [SBT-149, D-Arg(butylamidine analog)-L-DMT-L-Lys-L-Phe-NH2], the “attenuation of cardiac ischemia injury and ischemia-reperfusion injury” value [1] is reported as “able to attenuate cardiac ischemia injury and ischemia-reperfusion injury; also recorded: attenuation of cardiac ischemia-reperfusion injury”, the “infarct size expressed as a percentage of area at risk (AAR)” value [1] is reported as “reduced infarct size” and the “left ventricular developed pressure (LVDP)” value [1] is reported as “increased LVDP”. The “maximal rates of contraction (+dP/dt)” value [1] was “increased maximal rates of contraction”, the “maximal rates of relaxation (−dP/dt)” value [1] was “increased maximal rates of relaxation” and the LVDP [2] was “increased LVDP”. For the same compound, the infarct size [2] was “reduced infarct size”, the “maximal rates of contraction (+dP/dt)” value [2] was “increased maximal rates of contraction” and the “maximal rates of relaxation (−dP/dt)” value [2] was “increased maximal rates of relaxation”.
